Results from PubChem BioAssay AID463206 (Broad Institute, 2010).
Calls of active or inactive are those of the source.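 The calls were made as follows: active = caspase luminescence falls with dose and the half-maximal concentration AC50 from the fitted curve is at or below a set limit; inconclusive = flat fit at 30 to 70% signal loss, or invalid fit; inactive = AC50 above the limit, or signal rises instead.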

Test system: INS-1E cytokine-induced caspase-3/7, Caspase-Glo luminescence, 48 h
Experiment: suppression of cytokine-driven beta-cell apoptosis – INS-1E rat cells, luminescence, orthogonal assay for beta-cell apoptosis protection project, dose response (AID 463206)

Compound	AC50
COc1cc([N+](=O)[O-])cc(/C=N/NC(=O)c2cc(-c3ccccc3)nc3ccccc23)c1O	> 26 µM (inactive)
NC(=O)c1c(-c2ccc(Cl)cc2Cl)csc1NC(=O)Cc1ccccc1	> 26 µM (inactive)
O=c1cc(CSc2ccc(Cl)cc2)nc(-c2ccccn2)[nH]1	> 26 µM (inactive)
Cc1occc(=O)c1OC(=O)Nc1ccc(Cl)c(Cl)c1	> 26 µM (inactive)
COc1nnc(-c2ccc(N3CCCCC3)c(NC(=O)C3CCCCC3)c2)c2ccccc12	> 26 µM (inactive)
CCCOc1ccc(/C=N/NC(=S)Nc2ccccc2[N+](=O)[O-])c(O)c1	> 26 µM (inactive)
Cc1ccc(-c2csc(N3CCC(NS(=O)(=O)c4ccc5c(c4)OCCO5)CC3)n2)cc1	> 26 µM (inactive)
Cc1ccc(Nc2cc(C)nn2-c2nc(C)cc(=O)[nH]2)cc1	> 26 µM (inactive)
CCNC(=O)Nc1cc(S(=O)(=O)Nc2ccc(OC)cc2)ccc1N1CCOCC1	> 26 µM (inactive)
Cc1nn(S(=O)(=O)c2ccc(Cl)cc2)c(C)c1Sc1ccc([N+](=O)[O-])cc1	> 26 µM (inactive)
CC#CC[N+](C)(C)CCCCCCCCCCCC	> 26 µM (inactive)
O=C(N/N=C(\Cc1ncc[nH]1)c1ccccc1)c1ccncc1	> 26 µM (inactive)
Oc1ccccc1/C=N/Nc1nc2ccccc2o1	> 26 µM (inactive)
O=C(Nc1ccc(Cl)c(Cl)c1)Nc1nnc(CC2=CCCCC2)s1	> 26 µM (inactive)
Cc1cc(C(=O)NC2CCCc3c2cnn3-c2cccc(C)c2C)n(C)n1 (stereo not given)	> 26 µM (inactive)
CCCCNc1cc(C)nc(NCc2ccccc2)n1	> 26 µM (inactive)
O=[N+]([O-])c1ccc(O)c(/C=N/Nc2nc3ccccc3[nH]2)c1	> 26 µM (inactive)
COc1ccc(S(=O)(=O)Nc2cc(SCC(=O)O)c(O)c3ccccc23)cc1	> 26 µM (inactive)
COc1ccc(NS(=O)(=O)c2ccc(-c3cnc(C4CC4)o3)cc2)cc1OC	> 26 µM (inactive)
CCn1c(=O)c(C(=O)Nc2ccccn2)c(O)c2ccccc21	> 26 µM (inactive)
COc1cc(CN2CCN(c3cc(C)ccc3C)CC2)ccc1O	> 26 µM (inactive)
CNc1nc2cc([N+](=O)[O-])c([N+](=O)[O-])cc2nc1NC	> 26 µM (inactive)
Cc1cc(C)c(C)c(S(=O)(=O)N2CCN(c3ncnc4ccccc34)CC2)c1C	> 26 µM (inactive)
CCN(CC)S(=O)(=O)c1cccc(NC(=O)c2cc(-c3cccs3)nn2-c2ccccc2)c1	> 26 µM (inactive)

Compound	AC50
O=c1c2c3c(sc2n(CCN2CCCCC2)c(=O)n1Cc1ccco1)CCCCC3	25.4 µM
Cc1ccc(C[n+]2cccc(-c3ccccc3)c2)c(C)c1	> 26 µM (inactive)
CC(=O)NC(c1cccc([N+](=O)[O-])c1)c1ccc2cccnc2c1O (stereo not given)	> 26 µM (inactive)
C/C(=N\NC(=O)c1cccc(Br)c1)c1ccccn1	> 26 µM (inactive)
Cc1csc2nc(NC(=O)c3ccccc3)sc(=O)c12	> 26 µM (inactive)
CC1=NN(c2nc3ccccc3[nH]2)C(=O)/C1=C/N(C)C	> 26 µM (inactive)
Fc1ccc(CN(Cc2ccccc2)C(c2cccs2)c2nnnn2C2CCCCC2)cc1 (stereo not given)	> 26 µM (inactive)
Cc1cc(C)n(-c2nc(NCCO)c3c4c(sc3n2)CCCC4)n1	> 26 µM (inactive)
Cc1ccc(NS(=O)(=O)c2ccc(Cl)c(NC(=S)NC(=O)C3CCCCC3)c2)cc1Cl	> 26 µM (inactive)
Cn1nccc1C(=O)NC1CCCc2c1cnn2-c1ccc(C(C)(C)C)cc1 (stereo not given)	> 26 µM (inactive)
O=[N+]([O-])/C=C/c1cn(Cc2ccc(F)cc2)c2ccccc12	> 26 µM (inactive)
FC(F)(F)c1cccc(-c2nc3nc(Cl)c(Cl)nc3[nH]2)c1	> 26 µM (inactive)
Cc1ccc(NC(=O)Cn2c(=O)oc3cc(S(=O)(=O)N4CCC(C)CC4)ccc32)cc1C	> 26 µM (inactive)
COc1ccc(-c2cn(Cc3ccc(C(=O)c4ccccc4)cc3)nn2)cc1	> 26 µM (inactive)
CCOC(=O)c1c(C)[nH]c(C)c1C(=O)CSc1nc2ccccc2c(=O)n1-c1ccc(CC)cc1	> 26 µM (inactive)
COc1cccc(/C=N/NC(=O)c2ccoc2C)c1O	> 26 µM (inactive)
CCc1cc(C(=O)NC2CCCc3c2cnn3-c2cccc(C)c2C)n(C)n1 (stereo not given)	> 26 µM (inactive)
CCCCCCSc1cc(-c2nc3ccc(C)cn3c2NCc2ccccc2)ccc1OC	> 26 µM (inactive)
COc1ccc([N+](=O)[O-])c(S(=O)(=O)c2ccccc2)n1	> 26 µM (inactive)
Cc1cccc(/C=N/NC(=O)c2ccc3c(c2)OCCO3)c1O	> 26 µM (inactive)
COc1ccc(CC2(CO)CCN(CC3=Cc4cc(Cl)ccc4OC3)CC2)cc1	> 26 µM (inactive)
O=C1C=C(N2CCOCC2)c2ccccc2C1=O	> 26 µM (inactive)
O=c1c2ccccc2nc(N/N=C/c2c(O)ccc3ccccc23)n1O	> 26 µM (inactive)
Clc1cccc(N=C2NN=C(c3ccc4c(c3)OCCO4)CS2)c1	> 26 µM (inactive)

Compound	AC50
Clc1ccc(-c2cc(-c3nnc4n3CCCCC4)c3ccccc3n2)cc1	> 26 µM (inactive)
CCCC(=O)NC(c1cccs1)c1cc(Cl)c2cccnc2c1O (stereo not given)	> 26 µM (inactive)
CC(C)(C)n1nnnc1C(c1ccc(F)cc1)N(Cc1ccc(F)cc1)Cc1ccco1 (stereo not given)	> 26 µM (inactive)
CCOC(=O)C1CCN(C(=O)c2c(C)oc3c2C(=O)c2ccccc2C3=O)CC1	> 26 µM (inactive)
O=c1c2ccccc2nc(COc2ccccc2)n1/N=C/c1ccc(O)cc1O	> 26 µM (inactive)
CC(C)CCCCCCNC(=S)Nc1ccc(S(=O)(=O)N2CCOCC2)cc1	> 26 µM (inactive)
Cc1nc(Nc2ccc(Cl)c(Cl)c2)sc1C(=O)Nc1ccccc1	> 26 µM (inactive)
COc1ccc(S(=O)(=O)N(C(=O)c2ccco2)c2cc3sc(=O)oc3c3ccccc23)cc1	> 26 µM (inactive)
O=C(/C=C/c1ccc(-c2ccccc2)cc1)NCc1cccnc1	> 26 µM (inactive)
CCC(=NNC(=O)c1ccc2c(c1)nc(C)n2CC)c1cc(F)ccc1O	> 26 µM (inactive)
C=CCC1(CC=C)CCCN1C(=O)c1cc(COc2ccc(C)nc2)on1	> 26 µM (inactive)
CC(C)CNC(=O)COC(=O)c1c2c(nc3ccccc13)/C(=C/c1cccs1)CC2	> 26 µM (inactive)
O=C1C=C(Nc2ccc(O)cc2)C(=O)c2ccccc21	> 26 µM (inactive)
C/C(=N\NC(=O)c1cc(-c2cccnc2)nc2ccccc12)c1ccc(O)cc1O	> 26 µM (inactive)
Cc1ccc(NC(=O)c2cc(S(=O)(=O)NCCC3=CCCCC3)ccc2F)cc1F	> 26 µM (inactive)
CC(=O)N1c2ccc(S(=O)(=O)N3CCC(C(=O)N4CCN(c5cccc(C(F)(F)F)c5)CC4)CC3)cc2CC1C (stereo not given)	> 26 µM (inactive)
Oc1ccc(CN2CCc3ccccc3C2)c2cccnc12	> 26 µM (inactive)
O=C1C=C(Nc2ccccc2O)c2ccccc2C1=O	> 26 µM (inactive)
CC(C)(C)Nc1nc(-c2ccccn2)nc2ccccc12	> 26 µM (inactive)
C=CCc1cccc(/C=N/NC(=O)c2ccccc2OC)c1O	> 26 µM (inactive)
Cc1cc(N2CCOCC2)nc(N)n1	> 26 µM (inactive)
CC(Oc1cccc(Cl)c1)C(=O)Nc1cc(S(=O)(=O)N2CCOCC2)ccc1N1CCCCC1 (stereo not given)	> 26 µM (inactive)
